{"source": "patent US20250186405A1", "about": "“Compound For Use In Treating Narcolepsy” (Alkermes, Inc., priority 2023, published 2025)", "test_system": "subjects with narcolepsy type-2 (NT2)", "assay": "Part 5 POC NT2: treatment-emergent adverse events, single doses, crossover", "key": {"[1]": {"details": "Total (any Compound A dose), N = 9"}}, "experimental": "Part 5 consisted of a 4-way, 4-period crossover study design in approximately 8 subjects (2 subjects per sequence; minimum of 4 subjects with 1 subject per sequence). Subjects were randomized 1:1:1:1 to 1 of 4 sequences with 4 treatment periods (3 single doses of Compound A and 1 dose of matching placebo), with up to 48 hours of washout between treatments. Treatments were administered under fasted state.\nSubjects were randomized to 1 of 4 sequences. […] In each period, subjects were administered a single dose of study drug (either Compound A or placebo) as per the randomization schedule with approximately 240 mL of noncarbonated water following overnight fasting. No food was given for at least 3 hours after dose administration (i.e., fast can be broken after the 3-hour PK time point is collected). Water was allowed ad libitum except for 1 hour before and 1 hour after study drug administration. Safety assessments including AEs, safety ECGs, vital signs, and clinical laboratory tests were conducted, and plasma PK samples were collected. Furthermore, BP and HR were monitored once every hour for 12 hours on the dosing days.\nAdverse events (AEs) and serious adverse events (SAEs) were monitored continuously until the completion of the study.\nNine subjects with NT2 were dosed in Part 5 (POC in NT2) in a randomized 4-sequence 4-period cross-over design. Each dose of Compound A or matching placebo was separated by 2 days. A 14-day washout period preceded the treatment period and included discontinuation of narcolepsy medications. All 9 subjects underwent the washout period and received at least one dose of Compound A. All subjects completed all 4-way randomized crossover periods.", "data": [{"molecule": "CS(=O)(=O)N[C@H]1CCCN2C(=O)COc3ccccc3C3CCC(CC3)OCC12", "note": "(stereo partly drawn) [Compound A, N-[(4S,4aR,7α,10α)-1,2,3,4,4a,5,7,8,9,10,16,17-dodecahydro-17-oxo-7,10-ethanopyrido[1,2-d][1,7,4]benzodioxaazacyclotridecin-4-yl]methanesulfonamide]", "values": [{"measurement": "Any SAEs", "setting": "25 mg single dose, N = 9", "value": "0 n (%)"}, {"measurement": "Any TEAE", "setting": "25 mg single dose, N = 9", "value": "7 (77.8) n (%)"}, {"measurement": "Death", "setting": "25 mg single dose, N = 9", "value": "0 n (%)"}, {"measurement": "Drug Related TEAE by Preferred Term: Altered state of consciousness", "setting": "25 mg single dose, N = 9", "value": "0 n (%)"}, {"measurement": "Drug Related TEAE by Preferred Term: Dizziness", "setting": "25 mg single dose, N = 9", "value": "2 (22.2) n (%)"}, {"measurement": "Drug Related TEAE by Preferred Term: Dizziness postural", "setting": "25 mg single dose, N = 9", "value": "1 (11.1) n (%)"}, {"measurement": "Drug Related TEAE by Preferred Term: Feeling jittery", "setting": "25 mg single dose, N = 9", "value": "1 (11.1) n (%)"}, {"measurement": "Drug Related TEAE by Preferred Term: Headache", "setting": "25 mg single dose, N = 9", "value": "1 (11.1) n (%)"}, {"measurement": "Drug Related TEAE by Preferred Term: Initial insomnia", "setting": "25 mg single dose, N = 9", "value": "0 n (%)"}, {"measurement": "Drug Related TEAE by Preferred Term: Insomnia", "setting": "25 mg single dose, N = 9", "value": "2 (22.2) n (%)"}, {"measurement": "Drug Related TEAE by Preferred Term: Photophobia", "setting": "25 mg single dose, N = 9", "value": "1 (11.1) n (%)"}, {"measurement": "Drug Related TEAE by Preferred Term: Pollakiuria", "setting": "25 mg single dose, N = 9", "value": "3 (33.3) n (%)"}, {"measurement": "Drug Related TEAE by Preferred Term: Tachycardia", "setting": "25 mg single dose, N = 9", "value": "0 n (%)"}, {"measurement": "Drug Related TEAE by Preferred Term: Urinary incontinence", "setting": "25 mg single dose, N = 9", "value": "1 (11.1) n (%)"}, {"measurement": "Subjects with at least one TEAE", "setting": "25 mg single dose, N = 9", "value": "7 (77.8) n (%)"}, {"measurement": "Subjects with at least one treatment-related TEAE", "setting": "25 mg single dose, N = 9", "value": "6 (66.7) n (%)"}, {"measurement": "TEAE by Highest Relationship: Not Related", "setting": "25 mg single dose, N = 9", "value": "1 (11.1) n (%)"}, {"measurement": "TEAE by Highest Relationship: Related", "setting": "25 mg single dose, N = 9", "value": "6 (66.7) n (%)"}, {"measurement": "TEAE by Highest Severity: Mild", "setting": "25 mg single dose, N = 9", "value": "6 (66.7) n (%)"}, {"measurement": "TEAE by Highest Severity: Moderate", "setting": "25 mg single dose, N = 9", "value": "1 (11.1) n (%)"}, {"measurement": "TEAE by Highest Severity: Severe", "setting": "25 mg single dose, N = 9", "value": "0 n (%)"}, {"measurement": "TEAE by Preferred Term: Altered state of consciousness", "setting": "25 mg single dose, N = 9", "value": "0 n (%)"}, {"measurement": "TEAE by Preferred Term: Constipation", "setting": "25 mg single dose, N = 9", "value": "0 n (%)"}, {"measurement": "TEAE by Preferred Term: Contusion", "setting": "25 mg single dose, N = 9", "value": "1 (11.1) n (%)"}, {"measurement": "TEAE by Preferred Term: Dizziness", "setting": "25 mg single dose, N = 9", "value": "2 (22.2) n (%)"}, {"measurement": "TEAE by Preferred Term: Dizziness postural", "setting": "25 mg single dose, N = 9", "value": "1 (11.1) n (%)"}, {"measurement": "TEAE by Preferred Term: Dry skin", "setting": "25 mg single dose, N = 9", "value": "0 n (%)"}, {"measurement": "TEAE by Preferred Term: Feeling jittery", "setting": "25 mg single dose, N = 9", "value": "1 (11.1) n (%)"}, {"measurement": "TEAE by Preferred Term: Headache", "setting": "25 mg single dose, N = 9", "value": "1 (11.1) n (%)"}, {"measurement": "TEAE by Preferred Term: Initial insomnia", "setting": "25 mg single dose, N = 9", "value": "0 n (%)"}, {"measurement": "TEAE by Preferred Term: Insomnia", "setting": "25 mg single dose, N = 9", "value": "2 (22.2) n (%)"}, {"measurement": "TEAE by Preferred Term: Nasal dryness", "setting": "25 mg single dose, N = 9", "value": "1 (11.1) n (%)"}, {"measurement": "TEAE by Preferred Term: Nausea", "setting": "25 mg single dose, N = 9", "value": "0 n (%)"}, {"measurement": "TEAE by Preferred Term: Photophobia", "setting": "25 mg single dose, N = 9", "value": "1 (11.1) n (%)"}, {"measurement": "TEAE by Preferred Term: Pollakiuria", "setting": "25 mg single dose, N = 9", "value": "3 (33.3) n (%)"}, {"measurement": "TEAE by Preferred Term: Rash", "setting": "25 mg single dose, N = 9", "value": "0 n (%)"}, {"measurement": "TEAE by Preferred Term: Skin lesion", "setting": "25 mg single dose, N = 9", "value": "0 n (%)"}, {"measurement": "TEAE by Preferred Term: Tachycardia", "setting": "25 mg single dose, N = 9", "value": "0 n (%)"}, {"measurement": "TEAE by Preferred Term: Urinary incontinence", "setting": "25 mg single dose, N = 9", "value": "1 (11.1) n (%)"}, {"measurement": "Tolerability", "setting": "NT2, 5, 12 and 25 mg", "value": "well tolerated"}, {"measurement": "Subjects with at least one TEAE", "setting": "NT2, N = 9, all periods", "value": 77.8, "unit": "%"}, {"measurement": "AE Leading to Study Drug Discontinuation", "setting": "[1]", "value": "0 n (%)"}, {"measurement": "Any SAEs", "setting": "[1]", "value": "0 n (%)"}, {"measurement": "Any TEAE", "setting": "[1]", "value": "7 (77.8) n (%)"}, {"measurement": "Death", "setting": "[1]", "value": "0 n (%)"}, {"measurement": "Drug Related TEAE by Preferred Term: Altered state of consciousness", "setting": "[1]", "value": "0 n (%)"}, {"measurement": "Drug Related TEAE by Preferred Term: Dizziness", "setting": "[1]", "value": "2 (22.2) n (%)"}, {"measurement": "Drug Related TEAE by Preferred Term: Dizziness postural", "setting": "[1]", "value": "1 (11.1) n (%)"}, {"measurement": "Drug Related TEAE by Preferred Term: Feeling jittery", "setting": "[1]", "value": "1 (11.1) n (%)"}, {"measurement": "Drug Related TEAE by Preferred Term: Headache", "setting": "[1]", "value": "1 (11.1) n (%)"}, {"measurement": "Drug Related TEAE by Preferred Term: Initial insomnia", "setting": "[1]", "value": "1 (11.1) n (%)"}, {"measurement": "Drug Related TEAE by Preferred Term: Insomnia", "setting": "[1]", "value": "2 (22.2) n (%)"}, {"measurement": "Drug Related TEAE by Preferred Term: Photophobia", "setting": "[1]", "value": "1 (11.1) n (%)"}, {"measurement": "Drug Related TEAE by Preferred Term: Pollakiuria", "setting": "[1]", "value": "3 (33.3) n (%)"}, {"measurement": "Drug Related TEAE by Preferred Term: Tachycardia", "setting": "[1]", "value": "0 n (%)"}, {"measurement": "Drug Related TEAE by Preferred Term: Urinary incontinence", "setting": "[1]", "value": "1 (11.1) n (%)"}, {"measurement": "Subjects with at least one TEAE", "setting": "[1]", "value": "7 (77.8) n (%)"}, {"measurement": "Subjects with at least one treatment-related TEAE", "setting": "[1]", "value": "6 (66.7) n (%)"}, {"measurement": "TEAE by Highest Relationship: Not Related", "setting": "[1]", "value": "1 (11.1) n (%)"}, {"measurement": "TEAE by Highest Relationship: Related", "setting": "[1]", "value": "6 (66.7) n (%)"}, {"measurement": "TEAE by Highest Severity: Mild", "setting": "[1]", "value": "6 (66.7) n (%)"}, {"measurement": "TEAE by Highest Severity: Moderate", "setting": "[1]", "value": "1 (11.1) n (%)"}, {"measurement": "TEAE by Highest Severity: Severe", "setting": "[1]", "value": "0 n (%)"}, {"measurement": "TEAE by Preferred Term: Altered state of consciousness", "setting": "[1]", "value": "0 n (%)"}, {"measurement": "TEAE by Preferred Term: Constipation", "setting": "[1]", "value": "1 (11.1) n (%)"}, {"measurement": "TEAE by Preferred Term: Contusion", "setting": "[1]", "value": "1 (11.1) n (%)"}, {"measurement": "TEAE by Preferred Term: Dizziness", "setting": "[1]", "value": "2 (22.2) n (%)"}, {"measurement": "TEAE by Preferred Term: Dizziness postural", "setting": "[1]", "value": "1 (11.1) n (%)"}, {"measurement": "TEAE by Preferred Term: Dry skin", "setting": "[1]", "value": "1 (11.1) n (%)"}, {"measurement": "TEAE by Preferred Term: Feeling jittery", "setting": "[1]", "value": "1 (11.1) n (%)"}, {"measurement": "TEAE by Preferred Term: Headache", "setting": "[1]", "value": "1 (11.1) n (%)"}, {"measurement": "TEAE by Preferred Term: Initial insomnia", "setting": "[1]", "value": "1 (11.1) n (%)"}, {"measurement": "TEAE by Preferred Term: Insomnia", "setting": "[1]", "value": "2 (22.2) n (%)"}, {"measurement": "TEAE by Preferred Term: Nasal dryness", "setting": "[1]", "value": "1 (11.1) n (%)"}, {"measurement": "TEAE by Preferred Term: Nausea", "setting": "[1]", "value": "1 (11.1) n (%)"}, {"measurement": "TEAE by Preferred Term: Photophobia", "setting": "[1]", "value": "1 (11.1) n (%)"}, {"measurement": "TEAE by Preferred Term: Pollakiuria", "setting": "[1]", "value": "3 (33.3) n (%)"}, {"measurement": "TEAE by Preferred Term: Rash", "setting": "[1]", "value": "1 (11.1) n (%)"}, {"measurement": "TEAE by Preferred Term: Skin lesion", "setting": "[1]", "value": "1 (11.1) n (%)"}, {"measurement": "TEAE by Preferred Term: Tachycardia", "setting": "[1]", "value": "0 n (%)"}, {"measurement": "TEAE by Preferred Term: Urinary incontinence", "setting": "[1]", "value": "1 (11.1) n (%)"}]}]}
